Assay results taken from patent publication US20250295618A1, “PARASYMPATHETIC NERVE ACTIVATION AGENT AND PARASYMPATHETIC NERVE ACTIVATION COMPOSITION” (MARUZEN PHARMACEUTICALS CO., LTD., priority 2022, published 2025).

Tests used:
Assay type in all cases: in vivo, male Whistar rats
[1] = system: parasympathetic nerve (vagus nerve) innervating the pancreas; experiment: Test Example 1: neural activity of distal branches of vagus (parasympathetic) nerve for the pancreas (PVNA) after intragastric administration; details: urethane-anesthetized rats, measured for 60 minutes, percentage of value at 0 minutes (100%), FIG. 2
Experimental: (§1) The effect of the intragastric administration of the compound represented by Structural Formula (1) on the activity of the parasympathetic nerve innervating the stomach, the pancreas, or the intestine was tested in the following manner. For the experiment, male Whistar rats (approximately 9 weeks old) each having a body weight of approximately 300 g were kept in a 24° C. thermostatic animal room for 1 week or longer with a 12-hour light-dark cycle (lighting from 8:00 to 20:00). On the day of the experiment, the rats were fasted for 3 hours, followed by anesthetizing with urethane. A cannula for intragastric administration was inserted into each of the rats, and then distal branches of the parasympathetic nerve (vagus nerve) innervating the stomach, the pancreas, or the intestines (small intestine and large intestine) were lifted with a silver electrode, and the electrical activity thereof was measured. […] In addition, as a control, water serving as a solvent was intragastrically administered using the cannula at a dose of 0.5 mL/300 g of body weight, and the change in the neural activity of the distal branches of the above parasympathetic nerves was measured electrophysiologically for 60 minutes. […]

[2] = system: parasympathetic nerve (vagus nerve) innervating the intestines (small intestine and large intestine); experiment: Test Example 1: neural activity of distal branches of vagus (parasympathetic) nerve for the intestine (IVNA) after intragastric administration; details: urethane-anesthetized rats, measured for 60 minutes, percentage of value at 0 minutes (100%), FIG. 3
Experimental: as §1

[3] = system: parasympathetic nerve (vagus nerve) innervating the stomach; experiment: Test Example 1: neural activity of distal branches of vagus (parasympathetic) nerve for the stomach (GVNA) after intragastric administration; details: urethane-anesthetized rats; intragastric 0.015 mg/0.5 mL/300 g of body weight; measured for 60 minutes; percentage of value at 0 minutes (100%); FIG. 1
Experimental: as §1

[4] = intragastric 0.00015 mg/0.5 mL/300 g of body weight
[5] = intragastric 0.0015 mg/0.5 mL/300 g of body weight

COc1cc(CCC(=O)O)ccc1O [3-(4-hydroxy-3-methoxyphenyl)propionic acid]
pancreatic vagal nerve activity (PVNA) value compared with the water group [1, 4]: PVNA value higher than the PVNA value of the group to which water serving as the solvent was administered
pancreatic vagal nerve activity (PVNA) value compared with the water group [1, 5]: PVNA value higher than the PVNA value of the group to which water serving as the solvent was administered
intestinal vagal nerve activity (IVNA) value compared with the water group [2, 4]: IVNA values higher than the IVNA value of the group to which water serving as the solvent was administered
intestinal vagal nerve activity (IVNA) value compared with the water group [2, 5]: IVNA values higher than the IVNA value of the group to which water serving as the solvent was administered
gastric vagal nerve activity (GVNA) value compared with the water group [3]: GVNA value higher than the GVNA value of the group to which water serving as the solvent was administered
